Assay results taken from patent publication US11739074B2, “Ras inhibitors” (Revolution Medicines, Inc., priority 2019, dated 2023).
Where two headings read alike, the source gives them in different places.

Tests used:
AsPC-1 (K-Ras G12D) [1] = assay: CellTiter-Glo cell viability assay, AsPC-1; type: cell-based; details: Homo sapiens, ASPC1, 120 h
Procedure: Determination of Cell Viability in RAS Mutant Cancer Cell Lines
Protocol: CellTiter-Glo® Cell Viability Assay
Note—The following protocol describes a procedure for monitoring cell viability of K-Ras mutant cancer cell lines in response to a compound of the invention. Other RAS isoforms may be employed, though the number of cells to be seeded will vary based on cell line used.
Test compounds (132.5 nL) were directly dispensed into the assay plates containing cells. […] On day 5, assay plates and their contents were equilibrated to room temperature for approximately 30 minutes. […] Luminescence was measured using the PerkinElmer Enspire. Data were normalized by the following: (Sample signal/Avg. DMSO)*100. The data were fit using a four-parameter logistic fit.

AsPC-1 (K-Ras G12D) [2] = assay: Potency assay: pERK in AsPC-1 cells; type: cell-based; details: Homo sapiens
[3] = AsPC-1, K-Ras G12D, 5-day treatment, read-out: AsPC-1 Cell Viability IC50
[4] = ASPC1, AsPC-1 cells, K-Ras G12D, read-out: pERK EC50 (AsPC-1 KRAS G12D)
[5] = read-out: AsPC-1 Cell Viability IC50, AsPC-1, K-Ras G12D, 5-day treatment
[6] = ASPC1, read-out: pERK EC50 (AsPC-1 KRAS G12D)

| SMILES | IC50 (AsPC-1 (K-Ras G12D) [1]; [3]) [µM] | EC50 (AsPC-1 (K-Ras G12D) [2]; [4]) [µM] | IC50 (AsPC-1 (K-Ras G12D) [1]; [5]) [µM] | EC50 (AsPC-1 (K-Ras G12D) [2]; [6]) [µM] |
| --- | --- | --- | --- | --- |
| CCn1c(-c2cccnc2[C@H](C)OC)c2c3cc(ccc31)-c1cc(O)cc(c1)C[C@H](NC(=O)[C@H](C(C)C)N1CCC3(CCN(C(=O)[C@@H]4CN4)C3)C1=O)C(=O)N1CCC[C@H](N1)C(=O)OCC(C)(C)C2 (stereo partly shown) [Compound 113] | 1 to 10 | < 5 | – | – |
| CCn1c(-c2cccnc2[C@H](C)OC)c2c3cc(ccc31)-c1cc(O)cc(c1)C[C@H](NC(=O)[C@H](C(C)C)N(C)C(=O)[C@@H](C)N(C)C(=O)[C@H]1CN1)C(=O)N1CCC[C@H](N1)C(=O)OCC(C)(C)C2 [Compound 114] | – | – | 1 to 10 | < 5 |
| CCn1c(-c2cnccc2COC)c2c3cc(ccc31)-c1cc(O)cc(c1)C[C@H](NC(=O)[C@H](C(C)C)N(C)C(=O)CCNC1=NCCO1)C(=O)N1CCC[C@H](N1)C(=O)OCC(C)(C)C2 [Compound 120] | 1 to 10 | < 5 | – | – |
| CCn1c(-c2cccnc2[C@H](C)OC)c2c3cc(ccc31)-c1cccc(c1)C[C@H](NC(=O)[C@H](C(C)C)N1CC[C@@H](CN=C=NCCOC)C1)C(=O)N1CCC[C@H](N1)C(=O)OCC(C)(C)C2 [Compound 121] | 1 to 10 | < 5 | – | – |
| CCn1c(-c2cccnc2[C@H](C)OC)c2c3cc(ccc31)-c1cc(O)cc(c1)C[C@H](NC(=O)[C@H](C(C)C)N(C)C(=O)c1ccc(NC(=O)[C@H]3CN3)cn1)C(=O)N1CCC[C@H](N1)C(=O)OCC(C)(C)C2 [Compound 127] | > 10 | < 5 | – | – |
| CCn1c(-c2cccnc2[C@H](C)OC)c2c3cc(ccc31)-c1cc(O)cc(c1)C[C@H](NC(=O)[C@H](C(C)C)N1CC[C@@H](NC(=O)[C@@H]3CN3)C1=O)C(=O)N1CCC[C@H](N1)C(=O)OCC(C)(C)C2 [Compound 129] | 1 to 10 | < 5 | – | – |
| CCn1c(-c2cccnc2[C@H](C)OC)c2c3cc(ccc31)-c1cc(O)cc(c1)C[C@H](NC(=O)[C@H](C(C)C)N1CC[C@@]3(CCN(C[C@@H]4CN4)C3)C1=O)C(=O)N1CCC[C@H](N1)C(=O)OCC(C)(C)C2 [Compound 138] | > 10 | < 5 | – | – |
| CCn1c(-c2cccnc2[C@H](C)OC)c2c3cc(ccc31)-c1cc(O)cc(c1)C[C@H](NC(=O)[C@H](C(C)C)N(C)C(=O)CNC(=O)[C@H]1CN1)C(=O)N1CCC[C@H](N1)C(=O)OCC(C)(C)C2 [Compound 140] | – | – | 1 to 10 | < 5 |
| CCn1c(-c2cccnc2[C@H](C)OC)c2c3cc(ccc31)-c1cc(O)cc(c1)C[C@H](NC(=O)[C@H](C(C)C)N(C)C(=O)CNC(=O)[C@@H]1CN1)C(=O)N1CCC[C@H](N1)C(=O)OCC(C)(C)C2 [Compound 147] | – | – | 1 to 10 | < 5 |
| CCn1c(-c2cccnc2[C@H](C)OC)c2c3cc(ccc31)-c1cc(O)cc(c1)C[C@H](NC(=O)[C@H](C(C)C)N1CC[C@@]3(CCN(C(=O)[C@H]4CN4)C3)C1=O)C(=O)N1CCC[C@H](N1)C(=O)OCC(C)(C)C2 [Compound 149] | 1 to 10 | < 5 | – | – |
| CCn1c(-c2cccnc2[C@H](C)OC)c2c3cc(ccc31)-c1cc(O)cc(c1)C[C@H](NC(=O)[C@H](C(C)C)N(C)C(=O)[C@H]1CCCN1C(=O)[C@@H]1CN1)C(=O)N1CCC[C@H](N1)C(=O)OCC(C)(C)C2 [Compound 151] | – | – | 1 to 10 | < 5 |
| CCn1c(-c2cccnc2[C@H](C)OC)c2c3cc(ccc31)-c1cc(O)cc(c1)C[C@H](NC(=O)[C@H](C(C)C)N(C)C(=O)[C@H]1CCCN1C(=O)[C@H]1CN1)C(=O)N1CCC[C@H](N1)C(=O)OCC(C)(C)C2 [Compound 152] | – | – | 1 to 10 | < 5 |
| CCn1c(-c2cccnc2[C@H](C)OC)c2c3cc(ccc31)-c1cc(O)cc(c1)C[C@H](NC(=O)[C@H](C(C)C)N(C)C(=O)[C@H]1CC[C@@H](C)N1C(=O)[C@@H]1CN1)C(=O)N1CCC[C@H](N1)C(=O)OCC(C)(C)C2 [Compound 153] | – | – | 1 to 10 | < 5 |
| CCn1c(-c2cccnc2[C@H](C)OC)c2c3cc(ccc31)-c1cc(O)cc(c1)C[C@H](NC(=O)[C@H](C(C)C)N(C)C(=O)[C@H]1CC[C@@H](C)N1C(=O)[C@H]1CN1)C(=O)N1CCC[C@H](N1)C(=O)OCC(C)(C)C2 [Compound 154] | – | – | 1 to 10 | < 5 |
| CCn1c(-c2cccnc2[C@H](C)OC)c2c3cc(ccc31)-c1cc(O)cc(c1)C[C@H](NC(=O)[C@H](C(C)C)N(C)C(=O)[C@H]1CCN1C(=O)[C@@H]1CN1)C(=O)N1CCC[C@H](N1)C(=O)OCC(C)(C)C2 [Compound 157] | 1 to 10 | < 5 | – | – |
| CCn1c(-c2cccnc2[C@H](C)OC)c2c3cc(ccc31)-c1cc(O)cc(c1)C[C@H](NC(=O)[C@H](C(C)C)N(C)C(=O)[C@H]1CCN1C(=O)[C@H]1CN1)C(=O)N1CCC[C@H](N1)C(=O)OCC(C)(C)C2 [Compound 158] | 1 to 10 | < 5 | – | – |
| CCn1c(-c2cccnc2[C@H](C)OC)c2c3cc(ccc31)-c1cc(O)cc(c1)C[C@H](NC(=O)[C@H](C(C)C)N(C)C(=O)CN(C)C(=O)[C@H]1CN1CCO)C(=O)N1CCC[C@H](N1)C(=O)OCC(C)(C)C2 (stereo partly shown) [Compound 161] | – | – | 1 to 10 | < 5 |
| CCn1c(-c2cccnc2[C@H](C)OC)c2c3cc(ccc31)-c1cc(O)cc(c1)C[C@H](NC(=O)[C@H](C(C)C)N(C)C(=O)CN(C)C(=O)[C@@H]1CN1CCO)C(=O)N1CCC[C@H](N1)C(=O)OCC(C)(C)C2 (stereo partly shown) [Compound 162] | – | – | 1 to 10 | < 5 |
| CCn1c(-c2cccnc2[C@H](C)OC)c2c3cc(ccc31)-c1cc(O)cc(c1)C[C@H](NC(=O)[C@H](C(C)C)N(C)C(=O)C13CC(CN1C(=O)[C@@H]1CN1)C3)C(=O)N1CCC[C@H](N1)C(=O)OCC(C)(C)C2 [Compound 163] | 1 to 10 | < 5 | – | – |
| CCn1c(-c2cccnc2[C@H](C)OC)c2c3cc(ccc31)-c1cc(O)cc(c1)C[C@H](NC(=O)[C@H](C(C)C)N(C)C(=O)C13CC(CN1C(=O)[C@H]1CN1)C3)C(=O)N1CCC[C@H](N1)C(=O)OCC(C)(C)C2 [Compound 164] | 1 to 10 | < 5 | – | – |
| CCn1c(-c2cccnc2[C@H](C)OC)c2c3cc(ccc31)-c1cc(O)cc(c1)C[C@H](NC(=O)[C@H](C(C)C)N(C)C(=O)[C@]13C[C@H]1CCN3C(=O)[C@@H]1CN1)C(=O)N1CCC[C@H](N1)C(=O)OCC(C)(C)C2 [Compound 166] | 1 to 10 | < 5 | – | – |
| CCn1c(-c2cccnc2[C@H](C)OC)c2c3cc(ccc31)-c1cc(O)cc(c1)C[C@H](NC(=O)[C@H](C(C)C)N(C)C(=O)[C@H]1C[C@H](NC(=O)[C@@H]3CN3)C1)C(=O)N1CCC[C@H](N1)C(=O)OCC(C)(C)C2 [Compound 167] | 1 to 10 | < 5 | – | – |
| CCn1c(-c2cccnc2[C@H](C)OC)c2c3cc(ccc31)-c1cc(O)cc(c1)C[C@H](NC(=O)[C@H](C(C)C)N(C)C(=O)[C@@H]1CCN(C(=O)[C@@H]3CN3)C1)C(=O)N1CCC[C@H](N1)C(=O)OCC(C)(C)C2 [Compound 172] | 1 to 10 | < 5 | – | – |
| CCn1c(-c2cccnc2[C@H](C)OC)c2c3cc(ccc31)-c1cc(O)cc(c1)C[C@H](NC(=O)[C@H](C(C)C)N(C)C(=O)N1CCCN(C(=O)[C@@H]3CN3)CC1)C(=O)N1CCC[C@H](N1)C(=O)OCC(C)(C)C2 [Compound 173] | 1 to 10 | < 5 | – | – |
| CCn1c(-c2cccnc2[C@H](C)OC)c2c3cc(ccc31)-c1cc(O)cc(c1)C[C@H](NC(=O)[C@H](C(C)C)N(C)C(=O)CC1CN(C(=O)[C@@H]3CN3)C1)C(=O)N1CCC[C@H](N1)C(=O)OCC(C)(C)C2 [Compound 178] | > 10 | < 5 | – | – |
| CCn1c(-c2cccnc2[C@H](C)OC)c2c3cc(ccc31)-c1cc(O)cc(c1)C[C@H](NC(=O)[C@H](C(C)C)N(C)C(=O)CC1CN(C(=O)[C@H]3CN3)C1)C(=O)N1CCC[C@H](N1)C(=O)OCC(C)(C)C2 [Compound 179] | > 10 | < 5 | – | – |
| CCn1c(-c2cccnc2[C@H](C)OC)c2c3cc(ccc31)-c1cc(O)cc(c1)C[C@H](NC(=O)[C@H](C(C)C)N(C)C(=O)[C@H]1C[C@H](NC(=O)[C@H]3CN3)C1)C(=O)N1CCC[C@H](N1)C(=O)OCC(C)(C)C2 [Compound 182] | > 10 | < 5 | – | – |
| CCn1c(-c2cccnc2[C@H](C)OC)c2c3cc(ccc31)-c1cc(O)cc(c1)C[C@H](NC(=O)[C@H](C(C)C)N(C)C(=O)N1CCN(C(=O)[C@H]3CN3)CC1=O)C(=O)N1CCC[C@H](N1)C(=O)OCC(C)(C)C2 [Compound 183] | > 10 | < 5 | – | – |
| CCn1c(-c2cccnc2[C@H](C)OC)c2c3cc(ccc31)-c1cc(O)cc(c1)C[C@H](NC(=O)[C@H](C(C)C)N(C)C(=O)[C@]1(F)CCN(C(=O)[C@@H]3CN3)C1)C(=O)N1CCC[C@H](N1)C(=O)OCC(C)(C)C2 [Compound 184] | 1 to 10 | < 5 | – | – |
